# Experimental data taken from US20060135480A1, “Derivatives of succinic and glutaric acids and analogs thereof useful as inhibitors of phex” (Enobia Pharma, priority 2002, published 2006).
# How the values were obtained:
# [1] = target: T1, sPHEX (Homo sapiens, UniProt P78562); test: Protection of PHEX substrate PTHrP107-139 from sPHEX degradation (RP-HPLC); assay type: biochemical; details: 1×10^−5 M inhibitor, 15 min preincubation, 30 min at 37° C.
# T1 construct: The soluble form of the metallopeptidase PHEX (sPHEX) was purified to homogeneity; made in house
# T1 sequence (P78562 53-749 limits assumed): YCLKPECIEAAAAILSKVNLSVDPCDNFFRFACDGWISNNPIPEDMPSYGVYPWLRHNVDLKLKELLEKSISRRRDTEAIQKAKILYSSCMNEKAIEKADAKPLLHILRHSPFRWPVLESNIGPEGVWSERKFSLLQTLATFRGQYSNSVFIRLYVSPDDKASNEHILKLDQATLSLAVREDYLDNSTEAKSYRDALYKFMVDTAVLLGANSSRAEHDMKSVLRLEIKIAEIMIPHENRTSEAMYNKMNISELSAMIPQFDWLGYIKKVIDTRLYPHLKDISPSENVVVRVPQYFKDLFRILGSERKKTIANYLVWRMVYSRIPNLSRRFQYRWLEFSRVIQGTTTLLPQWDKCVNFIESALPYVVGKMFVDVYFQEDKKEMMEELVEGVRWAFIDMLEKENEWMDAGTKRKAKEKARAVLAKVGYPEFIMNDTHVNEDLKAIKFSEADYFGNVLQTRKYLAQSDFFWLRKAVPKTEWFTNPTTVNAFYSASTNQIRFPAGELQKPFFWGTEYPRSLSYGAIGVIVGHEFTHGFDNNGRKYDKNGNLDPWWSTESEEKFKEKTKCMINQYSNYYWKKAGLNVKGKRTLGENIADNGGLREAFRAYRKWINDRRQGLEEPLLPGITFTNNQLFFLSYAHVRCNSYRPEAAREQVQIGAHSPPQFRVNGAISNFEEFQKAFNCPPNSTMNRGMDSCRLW
# Procedure: In general, in order to show inhibition of sPHEX, the enzyme is incubated in the absence or the presence of the inhibiting compound, and a substrate is added in conditions that are suitable for sPHEX enzymatic activity. Hydrolysis of the substrate in the absence or the presence of the inhibiting compound is monitored.
# For example, 1.0 μg of purified sPHEX was first incubated at 37° C. for 15 min with or without 1×10^−5M of compound MH-2-64C (FIG. 1) in 90 μl 50 mM MES (2-(N-morpholino) ethanesulfonic acid) pH 6.5, 150 mM NaCl. Then, 2.5 μg of peptide PTHrP107-139 in 10 μl of the same buffer were added and the incubation continued for 30 min. The reaction mixture also contained 1.3 μg of the amino acid Phe which was used as an internal standard. After the incubation period, the reaction was stopped by the addition of EDTA to a final concentration of 5 mM. Detection of cleavage products was performed by reverse phase high performance liquid chromatography (RP-HPLC) on a C18 μBondapak™ analytical column (Waters, Mississauga, ON, Canada) with a UV detector set at 220 nm. […] Results were quantified by comparing the area under the undigested peak of PTHrP107-139, after normalization for the amount of Phe present in the sample.
# [2] = target: T1, sPHEX; test: sPHEX inhibitor IC50 determination using a fluorogenic substrate (Abz-GFSDYK-Dnp, S3); assay type: biochemical; details: fluorogenic substrate 20 μM, 100 ng sPHEX, pH 6.5
# Procedure: The soluble form of the metallopeptidase PHEX (sPHEX) was purified to homogeneity according to the methods of Boileau and Crine (WO 00/50580). sPHEX quantity was measured with the Bradford assay (BioRad) using BSA as a standard.
# sPHEX activity was determined using a fluorogenic substrate in which an increase of fluorescence was proportional to substrate conversion to products.
# S3 was synthesized at Dr. Gilles Lajoie's laboratories (University of Western Ontario, Canada) by standard solid phase peptide synthesis. The fluorescent reaction product was excited at 320 nm to fluoresce at 420 nm. Fluorescence was recorded at 420 nm every five minutes over a one-hour period on a fluorescence plate reader (Perkin-Elmer, HTS-7000) to calculate the initial rate of the reaction. Typically, the reaction was carried out in 200 μl of buffer M (50 mM Mes(NaOH) pH 6.5, 150 mM NaCl) containing 100 ng of purified sPHEX and 20 μM of fluorigenic substrate to initiate the reaction. Enzymatic activity was determined by subtracting either the initial rate of substrate in buffer (solvolysis), or the typical reaction rate in which 5 mM EDTA was added prior to initiating the reaction.
# sPHEX inhibitor IC50 determinations were done using the tested inhibitor at various concentrations coming from a serial dilution (usually ranging from 10^−3 M to 10^−12 M) in the reaction described above. IC50 values were calculated using the iterative four parameters non-linear regression formula from the GraphPad™ software (Prism).
smiles,measurement,setting,value
"O=C(O)CC(CC(=O)NO)C(=O)NCCc1ccc(-c2ccccc2)cc1 (centres unmarked) [Example 126, 3-(2-Biphenyl-4-yl-ethylcarbamoyl)4-hydroxycarbamoyl-butyric acid]",degradation of PTHrP107-139 by sPHEX,[1],fully prevented
same,IC50,[2],0.017 µM
